Reference: article PMC7359024, “Synthesis, Structure–Activity Relationship, and Mechanistic Studies of Aminoquinazolinones Displaying Antimycobacterial Activity” (ACS Infectious Diseases, 2020)
≈ marks a conversion by molar mass, not a printed value. Like-named read-outs stand apart in the source and are kept apart here.

Legend:
Mtb H37Rv strain = assay: MIC90 determination in GASTE-Fe media (broth microdilution); type: cell-based, Mycobacterium tuberculosis; design: fold loss in activity/potency (MIC90): reference not given here
physchem = type: physicochemical; details: for solubility: kinetic solubility, pH 7.4, HPLC method
Procedure: The kinetic solubility assay was performed using a miniaturised shake flask method. 10 mM stock solutions of each of the test compounds were used to prepare calibration standards (10-220μM) in DMSO. The same 10mM stock solutions were accurately dispensed in duplicate into 96-well plates and the DMSO dried down (MiVac GeneVac, 90 min, 37 °C). Thereafter, the samples were reconstituted (200 µM) in phosphate buffered saline (pH 7.4) and shaken (20 hours, 25 °C). The solutions were filtered and analysed by means of HPLC -DAD (Agilent 1200 Rapid Resolution HPLC with a diode array detector). […]

[1] = type: in vitro ADME; details: for Metabolic Stability H (% Rem.): human liver microsomes; for Metabolic Stability M (% Rem.): mouse liver microsomes; for Metabolic Stability R (% Rem.): rat liver microsomes
Procedure: 3.2. Microsomal stability
The metabolic stability assay was performed in duplicate in a 96-well micro titre plate. The test compounds (0.1 μM) were incubated individually in mouse, rat and pooled human liver microsomes ((final protein concentration of 0.4 mg/mL; XenoTech, Lenexa, KS ), suspended in 0.1M phosphate buffer (pH 7.4) at 37 °C for predetermined time points, in the presence and absence of the cofactor NADPH (1 mM). Reactions were quenched by adding ice cold acetonitrile containing internal standard (carbamazepine, 0.0236 µg/mL). T he samples were centrifuged and test compound in the supernatant were analysed by means of LC -MS/MS (Agilent Rapid Resolution HPLC, AB SCIEX 4500 MS ). The relative loss of parent compound over time was monitored and plots (concentration vs. time) were prepared per compound to determine the first order rate constant for compound depletion. This was in turn used to calculate half-life, in vitro intrinsic clearance and in vivo hepatic extraction ratio. Metabolite searches were not conducted during the metabolic stability assay. 5

[2] = Mtb H37Rv, replicating conditions, GASTE-Fe media, read 14 days after incubation, read-out: MIC90 GASTE-Fe
[3] = Mycobacterium tuberculosis, H37RV, 336 h, Mtb H37Rv, replicating conditions, GASTE-Fe media, read 14 days after incubation, read-out: MIC90 GASTE-Fe
[4] = Mycobacterium tuberculosis, H37RV, 336 h, read-out: MIC90 GAST-Fe

| SMILES | MIC90 (Mtb H37Rv strain; [3]) [µM] | solubility (physchem; 25 °C, pH 7.4, aqueous buffer) [µM] | solubility (physchem) [µM] | Metabolic Stability H (% Rem.) [1] | Metabolic Stability M (% Rem.) [1] [% Rem.] | Metabolic Stability R (% Rem.) [1] [% Rem.] | MIC90 (Mtb H37Rv strain; [4]) [µM] | other results |
| --- | --- | --- | --- | --- | --- | --- | --- | --- |
| NC[C@H]1O[C@H](O[C@H]2[C@H](O)[C@@H](O[C@H]3O[C@H](CO)[C@@H](O)[C@H](N)[C@H]3O)[C@H](N)C[C@@H]2N)[C@H](O)[C@@H](O)[C@@H]1O [Kanamycin, reference compound] |  |  |  |  |  |  |  | MIC90 (Mtb H37Rv strain; [2]): 1.562 µM (≈ 0.757 µg/mL) |
| CNC(=O)c1cncc(-c2ccc3nc(N)n(-c4ccc(C(F)(F)F)cc4)c(=O)c3c2)c1 [compound 12] | 9.22 (≈ 4.05 µg/mL) | 40 (≈ 17.6 µg/mL) | 39 (≈ 17.1 µg/mL) | 85 % Rem. | 75 | 85 |  | fold loss in activity/potency (MIC90) (Mtb H37Rv strain): 10 fold |
| Nc1nc2ccc(-c3cncc(C(=O)N4CCOCC4)c3)cc2c(=O)n1-c1ccc(C(F)(F)F)cc1 [compound 17, 2-Amino-6-(5-(morpholine-4-carbonyl)pyridin-3-yl)-3-(4-(trifluoromethyl)phenyl)quinazolin-4(3H)-one] | 83 (≈ 41.1 µg/mL) |  |  |  |  |  |  | fold loss in activity/potency (MIC90) (Mtb H37Rv strain): 15 fold |
| COc1cccc(-c2ccc3nc(N)n(-c4ccc(C(F)(F)F)cc4)c(=O)c3c2)c1 [compound 25] | 10 (≈ 4.11 µg/mL) |  |  |  |  |  |  |  |
| Nc1nc2ccc(-c3cccc(Cl)c3)cc2c(=O)n1-c1ccc(C(F)(F)F)cc1 [compound 29] | 0.675 (≈ 0.281 µg/mL) | < 5 |  | 73/-/- % Rem. |  |  |  |  |
| NC(=O)c1cccc(-c2ccc3c(=O)n(-c4ccc(C(F)(F)F)cc4)c(N)nc3c2)c1 [compound 33] | 1.22 (≈ 0.518 µg/mL) | 58 (≈ 24.6 µg/mL) |  | 96 % Rem. | 92 | 93 |  | fold improvement in solubility (physchem; pH 7.4, relative to comparator analogue): 10 fold |
| C[S+]([O-])c1cccc(-c2ccc3nc(N)n(-c4cccc(C(F)(F)F)c4)c(=O)c3c2)c1 (centres unmarked) [compound 34] |  | > 100 | 164 (≈ 72.7 µg/mL) | 50 % Rem. | 51 | 58 | 14.8 (≈ 6.56 µg/mL) |  |
| C[S+]([O-])c1cccc(-c2ccc3nc(N)n(-c4ccccc4)c(=O)c3c2)c1 (centres unmarked) [compound 35] |  |  |  |  |  |  | 33 (≈ 12.4 µg/mL) | MIC90 (Mtb H37Rv strain; read-out: MIC90 GAST-Fe): 33.4 µM (≈ 12.5 µg/mL) |
| Cc1ccc(-n2c(N)nc3ccc(-c4cccc([S+](C)[O-])c4)cc3c2=O)cc1 (centres unmarked) [compound 36] |  | > 100 | 172 (≈ 67 µg/mL) | 99 % Rem. | 71 | 68 | 3.09 (≈ 1.2 µg/mL) |  |
| CS(=O)(=O)c1cccc(-c2ccc3ncn(-c4ccc(C(F)(F)F)cc4)c(=O)c3c2)c1 [compound 38, 6-(3-(Methylsulfonyl)phenyl)-3-(4-(trifluoromethyl)phenyl)quinazolin-4(3H)-one] | 2.96 (≈ 1.32 µg/mL) | < 5 |  |  |  |  |  | fold loss in activity/potency (MIC90) (Mtb H37Rv strain): 10 fold |
| CN(C)c1nc2ccc(-c3cccc([S+](C)[O-])c3)cc2c(=O)n1-c1ccc(C(F)(F)F)cc1 (centres unmarked) [compound 42, 2-(Dimethylamino)-6-(3-(methylsulfinyl)phenyl)-3-(4-(trifluoromethyl)phenyl)quinazolin-4(3H)-one] | 2.89 (≈ 1.36 µg/mL) | < 5 |  | 82 % Rem. | 80 | 86 |  |  |
| CN(C)c1nc2ccc(-c3cccc(S(C)(=O)=O)c3)cc2c(=O)n1-c1ccc(C(F)(F)F)cc1 [compound 43, 2-(Dimethylamino)-6-(3-(methylsulfonyl)phenyl)-3-(4-(trifluoromethyl)phenyl)quinazolin-4(3H)-one] | > 125 | 21.6 (≈ 10.5 µg/mL) |  | 85 % Rem. | 90 | 94 |  | MIC90 (Mtb H37Rv strain; [2]): >125 µM |
| C[S+]([O-])c1cccc(-c2ccc3nc(N)n(-c4ccc(C(F)(F)F)nc4)c(=O)c3c2)c1 (centres unmarked) [compound 47, 2-Amino-6-(3-(methylsulfinyl)phenyl)-3-(6-(trifluoromethyl)pyridin-3-yl)quinazolin-4(3H)-one] |  | < 5 |  | 93 % Rem. | 93 | 99 | 0.922 (≈ 0.41 µg/mL) |  |
| C[S+]([O-])c1cccc(-c2ccc3nc(N)n(-c4ccccc4C(F)(F)F)c(=O)c3c2)c1 (centres unmarked) [compound 48] |  |  |  |  |  |  | > 125 |  |
| C[S+]([O-])c1cccc(-c2ccc3nc(N)n(-c4ccc(F)cc4)c(=O)c3c2)c1 (centres unmarked) [compound 49] |  | 37.8 (≈ 14.9 µg/mL) | 38 (≈ 15 µg/mL) | 82 % Rem. | 96 | 93 | 4.84 (≈ 1.9 µg/mL) |  |
| C[S+]([O-])c1cccc(-c2ccc3nc(N)n(-c4ccccc4F)c(=O)c3c2)c1 (centres unmarked) [compound 50] |  |  |  |  |  |  | 67 (≈ 26.4 µg/mL) |  |
| C[S+]([O-])c1cccc(-c2ccc3nc(N)n(-c4ccc(S(C)(=O)=O)cc4)c(=O)c3c2)c1 (centres unmarked) [compound 51] |  |  |  |  |  |  | > 125 |  |
| C[S+]([O-])c1cccc(-c2ccc3nc(N)n(-c4ccc(O)cc4)c(=O)c3c2)c1 (centres unmarked) [compound 52] |  |  |  |  |  |  | > 125 |  |
| COc1ccc(-n2c(N)nc3ccc(-c4cccc([S+](C)[O-])c4)cc3c2=O)cc1 (centres unmarked) [compound 53] |  | > 100 | 128 (≈ 51.9 µg/mL) | 100 % Rem. | 99 | 103 | 6.75 (≈ 2.74 µg/mL) |  |
| C[S+]([O-])c1cccc(-c2ccc3nc(N)n(-c4ccc(C#N)cc4)c(=O)c3c2)c1 (centres unmarked) [compound 54] |  | 16.3 (≈ 6.53 µg/mL) | 16 (≈ 6.41 µg/mL) | 92 % Rem. | 91 | 98 | 9.28 (≈ 3.72 µg/mL) |  |
| C[S+]([O-])c1cccc(-c2ccc3nc(N)n(-c4cccc(C#N)c4)c(=O)c3c2)c1 (centres unmarked) [compound 55] |  |  |  |  |  |  | 43 (≈ 17.2 µg/mL) |  |
| C[S+]([O-])c1cccc(-c2ccc3nc(N)n(C4CCC(F)(F)CC4)c(=O)c3c2)c1 (centres unmarked) [compound 56] |  | > 100 | 125 (≈ 52.2 µg/mL) | 95 % Rem. | 83 | 81 | 45.7 (≈ 19.1 µg/mL) |  |
| C[S+]([O-])c1cccc(-c2ccc3nc(N)n(C4CCC(C(F)(F)F)CC4)c(=O)c3c2)c1 (centres unmarked) [compound 57] |  |  |  |  |  |  | 2.75 (≈ 1.24 µg/mL) |  |
